Counter-ions that a name gives are not always drawn. Like-named read-outs stand apart in the source and are kept apart here.
Tested on: HUVECs
Experiment: Tube formation (tubulogenesis) assay in HUVECs, 18 h
Format: cell-based, human
Conditions: Homo sapiens, HUVEC, 18 h; for activity at 0.1 µM: 0.10 µM
Protocol: Similar to the cultivation of iCell®-endothelial cells, HUVEC maintenance and experimentation are detailed elsewhere ([Iwata et al. 2017]). Briefly, HUVECs were thawed, seeded, and grown in T75 tissue culture flasks in Medium 199 with EGM™-2 BulletKits™. HUVECs were incubated at regular cell culture conditions, 37°C and 5% CO2 , and passaged every 2–3 d using TrypLE™ Express. To ensure adequate endothelial function, experiments were performed with cells between passages 1 and 5.
Tube formation assays were performed on Geltrex™ LDEV-free reduced growth factor basement membrane using both iCell®-endothelial cells and HUVECs in 384-well format exactly as detailed in Iwata et al. ([2017]). Negative controls included media-only and vehicle control (i.e., 0.5% vol/vol DMSO in cell culture media) wells. Positive assay controls were consistent with previously published reports ([Iwata et al. 2017]) and included TAB ( 50μM ) as a cytotoxic control, and nocodazole ( 0.01–1μM ), suramin ( 0.5–50μM ), histamine ( 0.1–100μM ), and chloroquine ( 1–500μM ) as chemicals associated with specific effects on ECs. Each test chemical was screened in triplicate for each concentration. Briefly, for iCell®-endothelial cells, starvation media consisted of VascuLife® basal medium with 4 mM L-glutamine LifeFactor and 0.1% iCell®-endothelial cells medium supplement. To counter dilution effects, a 2× concentration of the HUVEC maintenance medium supplemented with additional VEGF was created (EGM™-2 BulletKits™ at 2× concentration; also the VEGF component was replaced with 12.5 ng/mL VEGF). Geltrex™ LDEV-free reduced growth factor basement membrane was thawed overnight and dispensed into 384-well plates ( 10μL/well ) with tapping and rotating to evenly coat. The plates were incubated for 1 h in a cell culture incubator at 37°C and 5% CO2 . A 2× PCB plate (containing all of the PCBs and metabolites in dose–response) was prepared in basal media and added, 25μL per well, to the Geltrex™ coated plates. On separate plates, cells were seeded 7,500 (iPSC- ECs) or 3,500 (HUVEC) cells/well. Cells were exposed to chemicals overnight at 37°C and 5% CO2 and stained with 3× concentration of calcein AM ( 25μL /well, 6μmol/L ) for 15 min before imaging. Images were captured at 4× magnification with the FITC filter (calcein AM). Images were analyzed with the angiogenesis module software within MetaXpress™ (Molecular Devices).
Phenotypic responses were quantitatively assessed using concentration–response modeling as detailed elsewhere ([Sirenko et al. 2017]). Briefly, phenotypic readouts were normalized to vehicle controls and fit to a four-parameter logistic model in R studio software (version 3.1.1; R Development Core Team). Following EPA guidance on dose–response modeling, a cutoff of one standard deviation across means of vehicle control (i.e., 0.5% vol/vol DMSO in cell culture media) wells was applied to determine the point-of-departure (POD) values ([U.S. EPA 2012]). In the absence of a concentration–response, the highest tested concentration (i.e., 100μM ) was assigned as “no observable adverse effect level.” The concentration–response assessment R script, as well as templates for vehicle and concentration–response data, are available as a supplement to Sirenko et al. ([2017]). The ability of physicochemical properties to predict differences in PODs were evaluated by multiregression and mixed-effects modeling using R.

[1] = HUVECs, 0.00 µM = 100.00, read-out: huvec.mtl.18hr
[2] = HUVECs, 0.00 µM = 100.00, read-out: huvec.tlps.18hr
[3] = HUVECs, 0.00 µM = 100.00, read-out: huvec.tta.18hr
[4] = HUVECs, 0.00 µM = 100.00, read-out: huvec.ttl.18hr
[5] = HUVECs, top concentration 100.00 µM, read-out: huvec.mtl.18hr POD
[6] = HUVECs, top concentration 100.00 µM, read-out: huvec.tlps.18hr POD
[7] = HUVECs, top concentration 100.00 µM, read-out: huvec.tta.18hr POD
[8] = HUVECs, top concentration 100.00 µM, read-out: huvec.ttl.18hr POD
[9] = tube formation mtl, read-out: POD huvec.mtl.18hr
[10] = tube formation tlps, read-out: POD huvec.tlps.18hr
[11] = tube formation tta, read-out: POD huvec.tta.18hr
[12] = tube formation ttl, read-out: POD huvec.ttl.18hr

O=S(=O)(O)Oc1cc(-c2ccccc2)ccc1Cl [3-yl PCB 3 sulfate]
activity at 0.01 µM [1]: 95% | activity at 0.01 µM [2]: 89.1% | activity at 0.01 µM [3]: 78% | activity at 0.01 µM [4]: 73.3% | activity at 0.1 µM [1]: 100% | activity at 0.1 µM [2]: 109% | activity at 0.1 µM [3]: 141% | activity at 0.1 µM [4]: 137% | activity at 1 µM [1]: 94.1% | activity at 1 µM [2]: 116% | activity at 1 µM [3]: 124% | activity at 1 µM [4]: 123% | activity at 10 µM [1]: 91.9% | activity at 10 µM [2]: 112% | activity at 10 µM [3]: 114% | activity at 10 µM [4]: 110% | activity at 100 µM [1]: 62.3% | activity at 100 µM [2]: 58.1% | activity at 100 µM [3]: 63.7% | activity at 100 µM [4]: 61.1% | minimal effective concentration [5]: 11.5 µM | minimal effective concentration [6]: 65.8 µM | minimal effective concentration [7]: 100 µM | minimal effective concentration [8]: 52.1 µM

Oc1ccc(-c2ccc(Cl)cc2)cc1 [4'-OH PCB3]
activity at 0.01 µM [1]: 101% | activity at 0.01 µM [2]: 106% | activity at 0.01 µM [3]: 113% | activity at 0.01 µM [4]: 119% | activity at 0.1 µM [1]: 94% | activity at 0.1 µM [2]: 89.7% | activity at 0.1 µM [3]: 88.3% | activity at 0.1 µM [4]: 93.3% | activity at 1 µM [1]: 93.7% | activity at 1 µM [2]: 76.2% | activity at 1 µM [3]: 98.5% | activity at 1 µM [4]: 102% | activity at 10 µM [1]: 72.2% | activity at 10 µM [2]: 66.1% | activity at 10 µM [3]: 68.8% | activity at 10 µM [4]: 71.7% | activity at 100 µM [1]: 76.3% | activity at 100 µM [2]: 34% | activity at 100 µM [3]: 11.6% | activity at 100 µM [4]: 8.84% | minimal effective concentration [5]: 1.21 µM | minimal effective concentration [6]: 0.51 µM | minimal effective concentration [7]: 5.36 µM | minimal effective concentration [8]: 5.16 µM

Oc1ccc(-c2ccc(Cl)cc2)cc1 [4'-OH-PCB 3]
minimal effective concentration [9]: 1.21 µM | minimal effective concentration [10]: 0.51 µM | minimal effective concentration [11]: 5.36 µM | minimal effective concentration [12]: 5.16 µM

COc1ccc(-c2ccc(Cl)cc2)cc1 [4'-OMe PCB3]
activity at 0.01 µM [1]: 112% | activity at 0.01 µM [2]: 133% | activity at 0.01 µM [3]: 123% | activity at 0.01 µM [4]: 113% | activity at 0.1 µM [1]: 111% | activity at 0.1 µM [2]: 139% | activity at 0.1 µM [3]: 131% | activity at 0.1 µM [4]: 125% | activity at 1 µM [1]: 103% | activity at 1 µM [2]: 128% | activity at 1 µM [3]: 116% | activity at 1 µM [4]: 111% | activity at 10 µM [1]: 81.4% | activity at 10 µM [2]: 122% | activity at 10 µM [3]: 75.2% | activity at 10 µM [4]: 75.8% | activity at 100 µM [1]: 58.6% | activity at 100 µM [2]: 37.2% | activity at 100 µM [3]: 51.7% | activity at 100 µM [4]: 48.9% | minimal effective concentration [5]: 7.13 µM | minimal effective concentration [6]: 49.5 µM | minimal effective concentration [7]: 8.82 µM | minimal effective concentration [8]: 7.82 µM

COc1ccc(-c2ccc(Cl)cc2)cc1 [4'-OMe-PCB 3, 4′-methoxy-4-chlorobiphenyl]
minimal effective concentration [9]: 7.13 µM | minimal effective concentration [10]: 49.5 µM | minimal effective concentration [11]: 8.82 µM | minimal effective concentration [12]: 7.82 µM

O=S(=O)(O)Oc1ccc(-c2ccc(Cl)cc2)cc1 [4'-PCB 3 sulfate]
minimal effective concentration [9]: 11.2 µM | minimal effective concentration [10]: 100 µM | minimal effective concentration [11]: 25.4 µM | minimal effective concentration [12]: 100 µM

O=S(=O)(O)Oc1ccc(-c2ccc(Cl)cc2)cc1 [4'-yl PCB 3 sulfate]
activity at 0.01 µM [1]: 107% | activity at 0.01 µM [2]: 166% | activity at 0.01 µM [3]: 116% | activity at 0.01 µM [4]: 109% | activity at 0.1 µM [1]: 106% | activity at 0.1 µM [2]: 138% | activity at 0.1 µM [3]: 140% | activity at 0.1 µM [4]: 133% | activity at 1 µM [1]: 117% | activity at 1 µM [2]: 173% | activity at 1 µM [3]: 125% | activity at 1 µM [4]: 123% | activity at 10 µM [1]: 93% | activity at 10 µM [2]: 102% | activity at 10 µM [3]: 93.4% | activity at 10 µM [4]: 88.6% | activity at 100 µM [1]: 57.3% | activity at 100 µM [2]: 38.9% | activity at 100 µM [3]: 53.2% | activity at 100 µM [4]: 59.7% | minimal effective concentration [5]: 11.2 µM | minimal effective concentration [6]: 100 µM | minimal effective concentration [7]: 25.4 µM | minimal effective concentration [8]: 100 µM

O=C1C=CC(=O)C(c2ccc(Cl)cc2)=C1 [4-Cl-BQ, 2-(4-Chlorophenyl)benzo-2,5-quinone]
minimal effective concentration [9]: 1.18 µM | minimal effective concentration [10]: 5.25 µM | minimal effective concentration [11]: 0.65 µM | minimal effective concentration [12]: 0.25 µM | activity at 0.01 µM [1]: 108% | activity at 0.01 µM [2]: 136% | activity at 0.01 µM [3]: 110% | activity at 0.01 µM [4]: 98.6% | activity at 0.1 µM [1]: 104% | activity at 0.1 µM [2]: 134% | activity at 0.1 µM [3]: 99.2% | activity at 0.1 µM [4]: 97.1% | activity at 1 µM [1]: 92.4% | activity at 1 µM [2]: 139% | activity at 1 µM [3]: 71% | activity at 1 µM [4]: 68.3% | activity at 10 µM [1]: 57.7% | activity at 10 µM [2]: 26.2% | activity at 10 µM [3]: 36.4% | activity at 10 µM [4]: 40% | activity at 100 µM [1]: 55.2% | activity at 100 µM [2]: 14.3% | activity at 100 µM [3]: 8.95% | activity at 100 µM [4]: 11.6% | minimal effective concentration [5]: 1.18 µM | minimal effective concentration [6]: 5.25 µM | minimal effective concentration [7]: 0.65 µM | minimal effective concentration [8]: 0.25 µM
